molecular target: USP30 (Homo sapiens (Human), UniProt Q70CQ3); assay: USP30 biochemical IC50 assay; settings: fluorescence polarisation, TAMRA labelled peptide linked to ubiquitin; 30 min pre-incubation, 2 hr read; read-out: IC50 range
Experimental: USP30 Biochemical IC50 Assay
Dilution plates were prepared at 21 times the final concentration (2100 μM for a final concentration of 100 μM) in 50% DMSO in a 96-well polypropylene V-bottom plate (Greiner #651201). A typical 8-point dilution series to be 100, 30, 10, 3, 1, 0.3, 0.1, 0.03 μM final. Reactions were performed in duplicate in black 384 well plates (small volume, Greiner 784076) in a final reaction volume of 21 μl. Either 1 μl of 50% DMSO or diluted compound was added to the plate. USP30 was diluted in reaction buffer (40 mM Tris, pH 7.5, 0.005% Tween 20, 0.5 mg/ml BSA, 5 mM beta-mercaptoethanol) to the equivalent of 0.05 μl/well and 10 μl of diluted USP30 was added to the compound. Enzyme and compound were incubated for 30 min at room temp. Reactions were initiated by the addition of 50 nM of TAMRA labelled peptide linked to ubiquitin via an iso-peptide bond as fluorescence polarisation substrate. Reactions were read immediately after addition of substrate and following a 2 hr incubation at room temperature. Readings were performed on a Pherastar Plus (BMG Labtech). λ Excitation 540 nm; λ Emission 590 nm.

Sequence of USP30 (Q70CQ3 57-517): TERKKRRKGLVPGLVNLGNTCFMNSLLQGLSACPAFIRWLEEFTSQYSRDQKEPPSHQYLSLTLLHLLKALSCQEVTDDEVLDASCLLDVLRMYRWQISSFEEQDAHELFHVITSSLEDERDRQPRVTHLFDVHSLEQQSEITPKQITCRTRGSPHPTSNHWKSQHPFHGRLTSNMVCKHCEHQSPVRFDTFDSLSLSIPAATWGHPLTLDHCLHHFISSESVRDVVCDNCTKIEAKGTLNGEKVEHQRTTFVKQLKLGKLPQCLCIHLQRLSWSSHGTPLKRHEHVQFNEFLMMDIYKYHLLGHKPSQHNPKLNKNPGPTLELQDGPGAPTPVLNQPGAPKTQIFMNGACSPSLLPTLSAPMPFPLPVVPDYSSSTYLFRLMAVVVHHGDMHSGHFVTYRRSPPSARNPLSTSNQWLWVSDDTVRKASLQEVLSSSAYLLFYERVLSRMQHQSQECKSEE

| SMILES | IC50 [nM] |
| --- | --- |
| N#CN1CCC(CNc2ccc3ccccc3n2)C1 (stereo not shown) [Example 1, 3-((Quinolin-2-ylamino)methyl)pyrrolidine-1-carbonitrile] | 1000 to 10000 |
| N#CN1CCC(CNc2nc3ccc(F)cc3s2)C1 (stereo not shown) [Example 2, 3-(((6-Fluorobenzo[d]thiazol-2-yl)amino)methyl)pyrrolidine-1-carbonitrile] | 1000 to 10000 |
| N#CN1CCC(CNc2nccc3ccccc23)C1 (stereo not shown) [Example 3, 3-((Isoquinolin-1-ylamino)methyl)pyrrolidine-1-carbonitrile] | 1000 to 10000 |
| N#CN1CCC(CNc2ncccc2-c2ccccc2)C1 (stereo not shown) [Example 4, 3-(((3-Phenylpyridin-2-yl)amino)methyl)pyrrolidine-1-carbonitrile] | 10000 to 100000 |
| N#CN1CCC(CNc2cc(-c3ccccc3)ccn2)C1 (stereo not shown) [Example 5, 3-(((4-Phenylpyridin-2-yl)amino)methyl)pyrrolidine-1-carbonitrile] | 100 to 1000 |
| N#CN1CCC(CNc2ccc(-c3ccccc3)cn2)C1 (stereo not shown) [Example 6, 3-(((5-Phenylpyridin-2-yl)amino)methyl)pyrrolidine-1-carbonitrile] | 1000 to 10000 |
| N#CN1CCC(CNc2nccc(-c3ccccc3)n2)C1 (stereo not shown) [Example 8, 3-(((4-Phenylpyrimidin-2-yl)amino)methyl)pyrrolidine-1-carbonitrile] | 1000 to 10000 |
| N#CN1CC[C@@H](CNc2ncc(-c3ccccc3)s2)C1 [Example 10, (S)-3-(((5-Phenylthiazol-2-yl)amino)methyl)pyrrolidine-1-carbonitrile] | 100 to 1000 |
| N#Cc1ccc2cnc(NCC3CCN(C#N)C3)cc2c1 (stereo not shown) [Example 16, 3-(((1-Cyano-pyrrolidin-3-yl)methyl)amino) isoquinoline-6-carbonitrile] | 1000 to 10000 |
| N#CN1CCC(CNc2ccnc(N3Cc4ccccc4C3)c2)C1 (stereo not shown) [Example 18, 3-(((2-(isoindolin-2-yl)pyridin-4-yl)amino)methyl)pyrrolidine-1-carbonitrile] | 100 to 1000 |
| N#CN1CC[C@@H](CNc2nccc(-c3ccccc3)n2)C1 [Example 19, (S)-3-(((4-Phenylpyrimidin-2-yl)amino)methyl)pyrrolidine-1-carbonitrile] | 1000 to 10000 |

More lines, now with the values ahead:

| IC50 [nM] | SMILES |
| --- | --- |
| 1000 to 10000 | N#CN1CCC(CNc2cccc(-c3ccccc3)n2)C1 (stereo not shown) [Example 7, 3-(((6-Phenylpyridin-2-yl)amino)methyl)pyrrolidine-1-carbonitrile] |
| < 100 | N#CN1CC[C@H](CNc2ncc(-c3ccccc3)s2)C1 [Example 9, (R)-3-(((5-Phenylthiazol-2-yl)amino)methyl)pyrrolidine-1-carbonitrile] |
| 100 to 1000 | N#CN1CCC(CNc2nc3ccc(-c4cn[nH]c4)cc3s2)C1 (stereo not shown) [Example 11, 3-(((6-(1H-Pyrazol-4-yl)benzo[d]thiazol-2-yl)amino)methyl)pyrrolidine-1-carbonitrile] |
| 1000 to 10000 | N#CN1CC[C@H](CNc2ncc3ccc(-c4cn[nH]c4)cc3n2)C1 [Example 12, (R)-3-(((7-(1H-Pyrazol-4-yl)quinazolin-2-yl)amino)methyl)pyrrolidine-1-carbonitrile] |
| 1000 to 10000 | Cc1nn(C)cc1-c1cccc(NCC2CCN(C#N)C2)c1 (stereo not shown) [Example 13, 3-(((3-(1,3-dimethyl-1H-pyrazol-4-yl)phenyl)amino)methyl)pyrrolidine-1-carbonitrile] |
| 1000 to 10000 | Cc1nn(C)cc1-c1ccc(NCC2CCN(C#N)C2)cc1 (stereo not shown) [Example 14, 3-(((4-(1,3-Dimethyl-1H-pyrazol-4-yl)phenyl)amino)methyl) pyrrolidine-1-carbonitrile] |
| 1000 to 10000 | Cc1nn(C)cc1-c1ccc(NCC2CCN(C#N)C2)c(F)c1 (stereo not shown) [Example 15, 3-(((4-(1,3-Dimethyl-1H-pyrazol-4-yl)-2-fluorophenyl)amino)methyl)pyrrolidine-1-carbonitrile] |
| 1000 to 10000 | CNC(=O)c1ccc2cnc(NCC3CCN(C#N)C3)cc2c1 (stereo not shown) [Example 17, 3-(((1-Cyano-pyrrolidin-3-yl)methyl)amino)-N-methylisoquinoline-6-carboxamide] |

From patent US11130748B2, “Compounds” (MISSION THERAPEUTICS LIMITED, priority 2015, dated 2021)
